In patent US20020137929A1, “1 - (3-heterocyclylphenyl) isothiourea, -isourea, -guanidine and -amidine herbicidal agents” (Intellectual Property Department, BASF Aktiengesellschaft, priority 1998, published 2002):

What was measured:
CYPIR (Rice Flatsedge) = assay: Postemergence weed control under flooded paddy conditions; format: in vivo, Cyperus iria; settings: postemergence weeds, 3-4 weeks after treatment
Method in brief: (§1)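 Injury ratings (0–9 scale covering stand, vigor, malformation, size, chlorosis and overall appearance versus control) were made three to four weeks after treatment. Test material, about 0.0313 to 0.500 kg/ha a.i. in 50/50 v/v aqueous/acetone, was added to flood water 1.5 to 3 cm deep over 3 to 5 cm weeds and 1.5 to 2.5 leaf rice.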

[1] = tested on: CHEAL (Lambsquarters, Common); assay: Postemergence herbicidal evaluation; format: in vivo, Chenopodium album; settings: postemergence
Method in brief: (§2)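 Scores (0–9) reflect plant stand, vigor, malformation, size, chlorosis and general appearance relative to control, read 4 to 5 weeks after treatment and averaged where tests were repeated. Application: about 0.0156–0.500 kg/ha sprayed at 40 psi onto two-week seedlings.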

[2] = tested on: IPOHE (Morningglory, Ivyleaf); assay: Postemergence herbicidal evaluation; format: in vivo, Ipomoea hederacea; settings: postemergence
Method in brief: as §2

ORYSAT (Rice, Tebonnet) = assay: Postemergence herbicidal evaluation; format: in vivo, Oryza sativa, (L.) Tebonnet; settings: postemergence
Method in brief: as §2

ECHCG (Barnyardgrass) [3] = assay: Postemergence herbicidal evaluation; format: in vivo, Echinochloa crus-galli; settings: postemergence
Method in brief: as §2

ABUTH (Velvetleaf) [4] = assay: Postemergence herbicidal evaluation; format: in vivo, Abutilon theophrasti; settings: postemergence
Method in brief: as §2

ABUTH (Velvetleaf) [5] = assay: Preemergence herbicidal evaluation; format: in vivo, Abutilon theophrasti; settings: rated 4-5 weeks after treatment
Method in brief: (§3)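 Test compound, dissolved in aqueous acetone, was sprayed over planted soil cups at an equivalent of about 0.0156 to 0.500 kg/ha; seeds had been mixed with potting soil. Greenhouse growth followed, with visual 0-9 scoring of injury at four to five weeks.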

ZEAMX (Corn, Field) [6] = assay: Preemergence herbicidal evaluation; format: in vivo, Zea mays; settings: rated 4-5 weeks after treatment
Method in brief: as §3

ZEAMX (Corn, Field) [7] = assay: Postemergence herbicidal evaluation; format: in vivo, Zea mays; settings: postemergence
Method in brief: as §2

[8] = tested on: TRZAWR (Wheat, Winter, cv Riband); assay: Preemergence herbicidal evaluation; format: in vivo, Triticum aestivum; settings: rated 4-5 weeks after treatment
Method in brief: as §3

[9] = tested on: CHEAL (Lambsquarters, Common); assay: Preemergence herbicidal evaluation; format: in vivo, Chenopodium album; settings: rated 4-5 weeks after treatment
Method in brief: as §3

[10] = tested on: GLXMAW (Soybean, Williams); assay: Preemergence herbicidal evaluation; format: in vivo, Glycine max, (L.) Merr. cv Williams; settings: rated 4-5 weeks after treatment
Method in brief: as §3

[11] = tested on: IPOHE (Morningglory, Ivyleaf); assay: Preemergence herbicidal evaluation; format: in vivo, Ipomoea hederacea; settings: rated 4-5 weeks after treatment
Method in brief: as §3

SETVI (Foxtail, Green) = assay: Postemergence herbicidal evaluation; format: in vivo, Setaria viridis; settings: postemergence
Method in brief: as §2

ECHCG (Barnyardgrass) [12] = assay: Preemergence herbicidal evaluation; format: in vivo, Echinochloa crus-galli; settings: rated 4-5 weeks after treatment
Method in brief: as §3

CYPSE (Flatsedge) = assay: Postemergence weed control under flooded paddy conditions; format: in vivo, Cyperus serotinus; settings: postemergence weeds, 3-4 weeks after treatment
Method in brief: as §1

CASOB (Sicklepod) = assay: Preemergence herbicidal evaluation; format: in vivo, Cassia obtusifolia; settings: rated 4-5 weeks after treatment
Method in brief: as §3

CCOC(=O)CN1C(=O)C(C)SC1=Nc1cc(-n2c(=O)cc(C(F)(F)F)n(C)c2=O)c(F)cc1Cl (stereo not shown) [Compound 12]
Herbicidal rating CYPIR (CYPIR (Rice Flatsedge); rate 0.0313 kg/ha): 0.0
Herbicidal rating CYPIR (CYPIR (Rice Flatsedge); rate 0.0625 kg/ha): 0.0
Herbicidal rating CYPIR (CYPIR (Rice Flatsedge); rate 0.1250 kg/ha): 1.0
Herbicidal rating CYPIR (CYPIR (Rice Flatsedge); rate 0.2500 kg/ha): 0.0
CHEAL herbicidal rating ([1]; rate 0.0156 kg/ha): 9.0
CHEAL herbicidal rating ([1]; rate 0.0313 kg/ha): 9.0
CHEAL herbicidal rating ([1]; rate 0.0625 kg/ha): 9.0
CHEAL herbicidal rating ([1]; rate 0.1250 kg/ha): 9.0
IPOHE herbicidal rating ([2]; rate 0.0156 kg/ha): 9.0
IPOHE herbicidal rating ([2]; rate 0.0313 kg/ha): 9.0
IPOHE herbicidal rating ([2]; rate 0.0625 kg/ha): 9.0
IPOHE herbicidal rating ([2]; rate 0.1250 kg/ha): 9.0
ORYSAT herbicidal rating (ORYSAT (Rice, Tebonnet); rate 0.0156 kg/ha): 2.5
ORYSAT herbicidal rating (ORYSAT (Rice, Tebonnet); rate 0.0313 kg/ha): 3.0
ORYSAT herbicidal rating (ORYSAT (Rice, Tebonnet); rate 0.0625 kg/ha): 3.0
ORYSAT herbicidal rating (ORYSAT (Rice, Tebonnet); rate 0.1250 kg/ha): 5.0
ECHCG herbicidal rating (ECHCG (Barnyardgrass) [3]; rate 0.0156 kg/ha): 0.0
ECHCG herbicidal rating (ECHCG (Barnyardgrass) [3]; rate 0.0313 kg/ha): 1.0
ECHCG herbicidal rating (ECHCG (Barnyardgrass) [3]; rate 0.0625 kg/ha): 4.0
ECHCG herbicidal rating (ECHCG (Barnyardgrass) [3]; rate 0.1250 kg/ha): 9.0
ABUTH herbicidal rating (ABUTH (Velvetleaf) [4]; rate 0.0156 kg/ha): 9.0
ABUTH herbicidal rating (ABUTH (Velvetleaf) [4]; rate 0.0313 kg/ha): 9.0
ABUTH herbicidal rating (ABUTH (Velvetleaf) [4]; rate 0.0625 kg/ha): 9.0
ABUTH herbicidal rating (ABUTH (Velvetleaf) [4]; rate 0.1250 kg/ha): 9.0
ABUTH preemergence herbicidal rating (ABUTH (Velvetleaf) [5]; rate 0.0156 kg/ha): 7.5
ABUTH preemergence herbicidal rating (ABUTH (Velvetleaf) [5]; rate 0.0313 kg/ha): 9.0
ABUTH preemergence herbicidal rating (ABUTH (Velvetleaf) [5]; rate 0.0625 kg/ha): 9.0
ABUTH preemergence herbicidal rating (ABUTH (Velvetleaf) [5]; rate 0.1250 kg/ha): 9.0
ABUTH preemergence herbicidal rating (ABUTH (Velvetleaf) [5]; rate 0.2500 kg/ha): 9.0
ZEAMX preemergence herbicidal rating (ZEAMX (Corn, Field) [6]; rate 0.0156 kg/ha): 4.0
ZEAMX preemergence herbicidal rating (ZEAMX (Corn, Field) [6]; rate 0.0313 kg/ha): 5.0
ZEAMX preemergence herbicidal rating (ZEAMX (Corn, Field) [6]; rate 0.0625 kg/ha): 5.5
ZEAMX preemergence herbicidal rating (ZEAMX (Corn, Field) [6]; rate 0.1250 kg/ha): 6.5
ZEAMX preemergence herbicidal rating (ZEAMX (Corn, Field) [6]; rate 0.2500 kg/ha): 8.5
ZEAMX herbicidal rating (ZEAMX (Corn, Field) [7]; rate 0.0156 kg/ha): 6.5
ZEAMX herbicidal rating (ZEAMX (Corn, Field) [7]; rate 0.0313 kg/ha): 7.0
ZEAMX herbicidal rating (ZEAMX (Corn, Field) [7]; rate 0.0625 kg/ha): 7.5
ZEAMX herbicidal rating (ZEAMX (Corn, Field) [7]; rate 0.1250 kg/ha): 8.0
TRZAWR preemergence herbicidal rating ([8]; rate 0.0156 kg/ha): 0.0
TRZAWR preemergence herbicidal rating ([8]; rate 0.0313 kg/ha): 1.0
TRZAWR preemergence herbicidal rating ([8]; rate 0.0625 kg/ha): 5.0
TRZAWR preemergence herbicidal rating ([8]; rate 0.1250 kg/ha): 8.0
TRZAWR preemergence herbicidal rating ([8]; rate 0.2500 kg/ha): 8.0
CHEAL preemergence herbicidal rating ([9]; rate 0.0156 kg/ha): 9.0
CHEAL preemergence herbicidal rating ([9]; rate 0.0313 kg/ha): 9.0
CHEAL preemergence herbicidal rating ([9]; rate 0.0625 kg/ha): 9.0
CHEAL preemergence herbicidal rating ([9]; rate 0.1250 kg/ha): 9.0
CHEAL preemergence herbicidal rating ([9]; rate 0.2500 kg/ha): 9.0
GLXMAW preemergence herbicidal rating ([10]; rate 0.0156 kg/ha): 1.5
GLXMAW preemergence herbicidal rating ([10]; rate 0.0313 kg/ha): 2.0
GLXMAW preemergence herbicidal rating ([10]; rate 0.0625 kg/ha): 3.5
GLXMAW preemergence herbicidal rating ([10]; rate 0.1250 kg/ha): 6.5
GLXMAW preemergence herbicidal rating ([10]; rate 0.2500 kg/ha): 9.0
IPOHE preemergence herbicidal rating ([11]; rate 0.0156 kg/ha): 4.5
IPOHE preemergence herbicidal rating ([11]; rate 0.0313 kg/ha): 9.0
IPOHE preemergence herbicidal rating ([11]; rate 0.0625 kg/ha): 9.0
IPOHE preemergence herbicidal rating ([11]; rate 0.1250 kg/ha): 9.0
IPOHE preemergence herbicidal rating ([11]; rate 0.2500 kg/ha): 9.0
SETVI herbicidal rating (SETVI (Foxtail, Green); rate 0.0156 kg/ha): 0.0
SETVI herbicidal rating (SETVI (Foxtail, Green); rate 0.0313 kg/ha): 4.0
SETVI herbicidal rating (SETVI (Foxtail, Green); rate 0.0625 kg/ha): 9.0
SETVI herbicidal rating (SETVI (Foxtail, Green); rate 0.1250 kg/ha): 9.0
ECHCG preemergence herbicidal rating (ECHCG (Barnyardgrass) [12]; rate 0.0156 kg/ha): 2.0
ECHCG preemergence herbicidal rating (ECHCG (Barnyardgrass) [12]; rate 0.0313 kg/ha): 5.0
ECHCG preemergence herbicidal rating (ECHCG (Barnyardgrass) [12]; rate 0.0625 kg/ha): 6.0
ECHCG preemergence herbicidal rating (ECHCG (Barnyardgrass) [12]; rate 0.1250 kg/ha): 9.0
ECHCG preemergence herbicidal rating (ECHCG (Barnyardgrass) [12]; rate 0.2500 kg/ha): 9.0
Herbicidal rating CYPSE (CYPSE (Flatsedge); rate 0.0313 kg/ha): 1.0
Herbicidal rating CYPSE (CYPSE (Flatsedge); rate 0.0625 kg/ha): 3.0
Herbicidal rating CYPSE (CYPSE (Flatsedge); rate 0.1250 kg/ha): 1.0
Herbicidal rating CYPSE (CYPSE (Flatsedge); rate 0.2500 kg/ha): 6.0
CASOB preemergence herbicidal rating (CASOB (Sicklepod); rate 0.0156 kg/ha): 0.0
CASOB preemergence herbicidal rating (CASOB (Sicklepod); rate 0.0313 kg/ha): 0.0
CASOB preemergence herbicidal rating (CASOB (Sicklepod); rate 0.0625 kg/ha): 4.5
CASOB preemergence herbicidal rating (CASOB (Sicklepod); rate 0.1250 kg/ha): 4.5
CASOB preemergence herbicidal rating (CASOB (Sicklepod); rate 0.2500 kg/ha): 6.0
